Measured values taken from article PMC5698418 (Nature Communications, 2017).

Legend:
[1] = system: nuclear Arc in primary cortical neurons; experiment: Low-throughput nuclear Arc immunofluorescence assay (coverslips, Map2-positive cells); assay type: cell-based, mouse
Text: Next, using fluorescent immunocytochemistry we assessed to what extent the observed induction of total Arc protein expression measured by western blotting corresponded to an accumulation of Arc in the nucleus of our cultured neurons. We chose to focus on nuclear Arc at this point based on the assumption that it would provide a robust and easily tractable phenotype for testing a large set of compounds with the help of a quantitative, single-cell level, high-content, image-based screen. […] On the other hand, many but not all of the neurons in cultures that were treated with BDNF for 6 h had high levels of Arc in their nuclei (Fig. 2b). […] Finally, to further evaluate the sensitivity of our method to quantify nuclear Arc expression, we tested four pharmacological inhibitors predicted to prevent BDNF-induced Arc expression. […] These experimental results with known mechanism of action compounds critically guided the design and interpretation of the chemogenomic screen performed next.
(§1) Indirect immunofluorescence detection of antigens was carried out using cortical neurons cultured on poly-L-lysine/laminin-coated coverslips in 24-well plates at a density of 0.1 × 10^7 per well. After experimental treatment, cells were washed twice with PBS and fixed for 30 min at room temperature with 4% paraformaldehyde in PBS. After fixation, cells were washed twice with PBS, permeabilized with PBST (PBS + 0.25% Triton X-100) for 20 min, blocked in blocking solution (PBS + 5% normal goat serum) for another 30 min, and finally incubated overnight at 4 °C with the first primary antibody in blocking solution. The next day, coverslips were extensively washed with PBS and incubated for 2 h at room temperature in the appropriate fluorophore-conjugated secondary antibody solution (Alexa 488- or Alexa 594-conjugated secondary antibody (Molecular Probes, Invitrogen) in blocking solution). After washing with PBS, the coverslips were incubated again overnight in primary antibody solution for the second antigen, and the procedure for conjugation of the fluorophore-conjugated secondary antibody was repeated as above. Finally, cell nuclei were counterstained with 4′,6-diamidino-2-phenylindole (DAPI), and coverslips were mounted on glass slides with ProLong Antifade reagent (Invitrogen).
Cells cultured on coverslips from three independent biological replicates were imaged with an IN Cell Analyzer 6000 high-performance laser-based confocal imaging system and a ×40 objective (GE Healthcare Life Sciences, Marlborough, MA). Image preparation, assembly, and analysis were performed with ImageJ (NIH) and Photoshop CS. Change in contrast and evenness of the illumination was applied equally to all images presented in the study. The following procedure was used for low-throughput measurements. First, original raw tiff files were opened in ImageJ, the nucleus of all neurons in the image was located based on Map2 immunostaining, then average pixel intensity corresponding to Arc immunofluorescence was measured for a 30-pixel spot positioned at the center of the nuclear compartment. Second, for each measure of Arc nuclear immunofluorescence pixel intensity, a measure of background pixel intensity from the same image channel was acquired and subsequently subtracted from the Arc nuclear immunofluorescence pixel intensity value. Finally, Arc immunofluorescence signal from untreated samples was used to establish an objective threshold (two standard deviations above the nuclear Arc immunofluorescence signal averaged from a representative population of untreated neurons) and allow comparison of nuclear Arc expression between different experimental conditions.

Arc mRNA = Arc mRNA by real-time RT-PCR in primary cortical neurons; assay type: cell-based, mouse; conditions: 6 h BDNF plus U0126 10 µM or NSC23766 200 µM
Protocol: After experimental treatment, total RNA was isolated from primary cortical neuron cultures using the TRIzol method (Invitrogen). The concentration of total RNA was measured using a NanoDrop 1000 spectrophotometer (Thermo Fisher Scientific, Rockford, IL) and first-strand complementary DNA (cDNA) was synthesized using the iScript cDNA Synthesis Kit (Bio-Rad, Hercules, CA). Real-time PCRs were performed using gene-specific primers and monitored by quantification of SYBR Green I fluorescence using a Bio-Rad CFX96 Real-Time Detection System. Expression was normalized against Gapdh expression. The relative quantification from at least three biological replicates was performed using the comparative cycle threshold (∆∆CT) method.
Primers for real-time reverse transcription PCR experiments were: Arc, 5′-[…]-3′ (forward) and 5′-[…]-3′ (reverse); Map2, 5′-[…]-3′ (forward) and 5′-[…]-3′ (reverse); GluA1, 5′-[…]-3′ (forward) and 5′-[…]-3′ (reverse); GluA2, 5′-[…]-3′ (forward) and 5′-[…]-3′ (reverse); Gapdh, 5′-[…]-3′ (forward) and 5′-[…]-3′ (reverse).

HDAC3 = target: T1, HDAC3 (Homo sapiens, UniProt O15379); experiment: Biochemical HDAC assay (BPS Bioscience), HDAC3; conditions: 25 µM
T1 construct: purchased BPS Bioscience (San Diego, CA), contract assay service
T1 sequence (O15379 whole entry): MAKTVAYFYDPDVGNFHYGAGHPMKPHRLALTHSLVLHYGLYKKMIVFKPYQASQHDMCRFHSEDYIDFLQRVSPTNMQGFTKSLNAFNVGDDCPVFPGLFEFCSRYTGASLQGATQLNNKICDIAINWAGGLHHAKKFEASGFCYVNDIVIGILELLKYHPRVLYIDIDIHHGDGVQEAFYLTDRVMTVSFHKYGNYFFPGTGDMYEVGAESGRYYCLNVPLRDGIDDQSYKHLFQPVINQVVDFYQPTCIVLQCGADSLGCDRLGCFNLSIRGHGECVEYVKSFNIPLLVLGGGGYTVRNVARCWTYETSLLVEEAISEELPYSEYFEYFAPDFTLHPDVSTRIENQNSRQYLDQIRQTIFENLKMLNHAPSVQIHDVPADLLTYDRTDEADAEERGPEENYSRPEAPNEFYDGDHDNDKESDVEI
T1 sequence (Q9Y618 395-489 partner limits assumed): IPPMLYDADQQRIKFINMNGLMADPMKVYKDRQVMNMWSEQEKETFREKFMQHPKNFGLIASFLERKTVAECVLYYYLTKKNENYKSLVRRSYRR

surface GluA1 = experiment: Surface AMPAR (GluA1) imaging along dendrites; assay type: cell-based, mouse; conditions: 16.7 µM, 6 h with BDNF, vs untreated and BDNF alone; for BDNF: BDNF alone vs baseline
Protocol: Our procedure to label surface AMPARs containing the GluA1 subunit was adapted from two reports[14],[61]. Precisely, DIV14 primary cortical neurons cultured on coverslips were rinsed once with room temperature PBS^MC (PBS containing 0.5 mM CaCl2, 1 mM MgCl2, and 4% sucrose). Live cells were then incubated for 30 min at room temperature with GluA1 primary antibody solution (PBS^MC with antibody against the extracellular N-terminus of GluA1 (EMD Millipore Corp, clone RH95, 5.0 µg ml^−1)). Next, cells were rinsed twice with ice-cold PBS^MC followed by fixation with 4% paraformaldehyde + 4% sucrose solution for 15 min at room temperature. After fixation, neurons were washed with regular PBS and then incubated overnight with Map2 primary antibody solution (PBS with 0.125% Triton X-100, 5% normal goat serum, and anti-Map2 antibody) to label dendrites. Next day, coverslips were washed with PBS, incubated with appropriate secondary antibodies for 1 h at room temperature, and finally mounted on glass slides with ProLong Antifade reagent (Invitrogen).
(§2) Quantification of surface GluA1 puncta was performed according to the following strategy. First, overlapping digital images of GluA1 and Map2 immunostainings were collected using a Zeiss AxioObserver Z1 inverted microscope and ×63 oil immersion objective. Second, thresholding and segmentation based on the Map2 images was used to remove GluA1 signals outside of dendritic processes. Importantly, the same background/foreground cutoff threshold was used for images of all experimental conditions. Third, the length of dendrites for each image set was measured and recorded. Finally, distinct GluA1 foreground objects along dendrites >5 pixels were counted using the particle analysis tool in ImageJ and presented as the average number of GluA1 puncta per µm of dendrite length for each experimental condition.

[2] = system: BDNF-induced nuclear Arc expression in primary cortical neurons; experiment: Chemogenomic screen: high-content image-based assay of BDNF-induced nuclear Arc expression (96-well); assay type: cell-based, mouse
Procedure, shortened: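 DIV13 mouse primary cortical neurons (30,000 cells/well) are treated with compound at 16.7 µM and BDNF, in three biological replicates. Arc and acetyl-H3K9 are immunostained and imaged at ×40, and nuclear Arc signal is quantified automatically using acetyl-H3K9 as the nuclear mask.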

acetyl-H3K9 = experiment: Acetyl-H3K9 immunofluorescence in neuronal nuclei (multiplexed in screen); assay type: cell-based, mouse
Protocol: To increase the throughput of our pharmacological screening for modulators of Arc, the above mentioned assay was adapted to cultures of mouse primary cortical neurons in 96-well plates.
Screening of compounds in the chemogenomic library was carried out using DIV13 primary forebrain cortical neurons cultured on poly-L-lysine/laminin-coated 96-well plates (Ibidi USA, Madison, WI). Cells were seeded at a density of 30,000 cells per well and treated with the compound library and BDNF according to the experimental design presented in Fig. 3a. After experimental treatment, cells were processed for Arc and acetyl-H3K9 immunocytochemistry according to the protocol described above. Both antigens (Arc and acetyl-H3K9) were imaged using an IN Cell Analyzer 6000 imaging system and a ×40 objective. […] High-throughput quantification of nuclear Arc immunofluorescence signal was performed in a similar fashion than the low-throughput procedure described above but with the exception that acetyl-H3K9 was used as a nuclear mask to guide the automated quantification of nuclear Arc immunofluorescence signal.

HDAC2 = target: T2, HDAC2 (Homo sapiens, UniProt Q92769); experiment: Biochemical HDAC assay (BPS Bioscience), HDAC2; conditions: 25 µM
T2 construct: purchased BPS Bioscience (San Diego, CA), contract assay service
T2 sequence (Q92769 whole entry): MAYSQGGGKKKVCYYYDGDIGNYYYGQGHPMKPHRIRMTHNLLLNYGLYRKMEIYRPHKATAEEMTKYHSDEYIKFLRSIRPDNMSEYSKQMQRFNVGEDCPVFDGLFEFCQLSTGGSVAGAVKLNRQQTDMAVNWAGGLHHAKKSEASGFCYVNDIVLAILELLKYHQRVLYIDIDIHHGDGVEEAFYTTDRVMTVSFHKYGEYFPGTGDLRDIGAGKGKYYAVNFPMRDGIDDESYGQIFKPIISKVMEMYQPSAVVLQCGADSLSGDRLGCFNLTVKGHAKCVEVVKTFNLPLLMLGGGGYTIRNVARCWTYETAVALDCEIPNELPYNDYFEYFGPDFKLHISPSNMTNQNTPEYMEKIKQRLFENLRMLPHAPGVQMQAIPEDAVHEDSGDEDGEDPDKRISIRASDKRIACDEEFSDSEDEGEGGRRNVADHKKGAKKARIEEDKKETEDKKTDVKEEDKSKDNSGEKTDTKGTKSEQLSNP

[3] = system: Arc puncta in dendrites of primary cortical neurons; experiment: Arc puncta along Map2-labeled dendrites (immunocytochemistry); assay type: cell-based, mouse; conditions: 16.7 µM with BDNF, vs untreated and BDNF alone; for BDNF: BDNF alone vs untreated
Text: Chemical structure of each compound is presented on top. b Graphs show mean (n = 5) Arc/β-actin ratio (±SEM) for cells treated as in a. […] Tukey’s HSD post hoc test, *p < 0.05; **p < 0.01, ***p < 0.005; ****p < 0.0001. […] Representative captures of DIV14 mouse primary cortical neurons from each experimental condition co-immunostained for Arc (red fluorophore) and Map2 (green fluorophore). White arrowheads show examples of discrete Arc puncta. […] Tukey’s HSD post hoc test, *p < 0.05; ***p < 0.005; ****p < 0.0001
as §1, §2

HDAC1 = target: T3, HDAC1 (Homo sapiens, UniProt Q13547); experiment: Biochemical HDAC assay (BPS Bioscience), HDAC1; conditions: 25 µM
T3 construct: purchased BPS Bioscience (San Diego, CA), contract assay service
T3 sequence (Q13547 whole entry): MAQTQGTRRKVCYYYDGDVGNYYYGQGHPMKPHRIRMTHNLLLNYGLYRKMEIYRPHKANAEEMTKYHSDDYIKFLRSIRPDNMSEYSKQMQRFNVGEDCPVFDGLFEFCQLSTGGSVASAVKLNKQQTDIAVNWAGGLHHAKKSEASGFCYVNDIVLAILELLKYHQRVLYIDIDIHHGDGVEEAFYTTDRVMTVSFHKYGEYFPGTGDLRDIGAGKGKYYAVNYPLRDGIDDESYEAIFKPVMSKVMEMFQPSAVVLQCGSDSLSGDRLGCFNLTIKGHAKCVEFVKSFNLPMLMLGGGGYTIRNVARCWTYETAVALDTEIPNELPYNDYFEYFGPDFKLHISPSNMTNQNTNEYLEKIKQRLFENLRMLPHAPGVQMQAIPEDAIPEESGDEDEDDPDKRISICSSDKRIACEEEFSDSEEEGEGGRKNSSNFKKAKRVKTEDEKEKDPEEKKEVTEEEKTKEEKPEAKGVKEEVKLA

Arc protein = experiment: Western blot of total Arc protein in primary cortical neurons; assay type: cell-based, mouse; conditions: 6 h; BDNF 100 ng ml−1 or 4AP 40 µM + Bic 50 µM
Protocol: Forebrains of E16.5 C57BL/6 mouse embryos were dissected and then dissociated in trypsin solution for 15 min followed by three washes with phosphate-buffered saline (PBS). Single-cell suspension was achieved by gentle pipet trituration. Neurons were seeded in poly-L-lysine/laminin-coated six-well plates at a density of 2 × 10^6 per well and maintained in neurobasal medium containing B27 supplement (2%, Invitrogen, Grand Island, NY), penicillin (50 units ml^−1, Invitrogen), streptomycin (50 µg ml^−1, Invitrogen), and glutamine (1 mM, Sigma). For experiments involving BDNF (EMD Millipore Corps, Billerica, MA), the stock solution (2 ng µl^−1 in water) was added directly to the culture medium at a final concentration of 100 ng ml^−1 for the indicated period of time.
For western blot analyses, cells were collected by scraping in ice-cold radioimmunoprecipitation assay (RIPA) buffer (50 mM Tris-HCl (pH 8.0), 300 mM NaCl, 0.5% Igepal-630, 0.5% deoxycholic acid, 0.1% SDS, 1 mM EDTA) supplemented with a cocktail of protease inhibitors (Complete Protease Inhibitor without EDTA, Roche Applied Science, Indianapolis, IN) and phosphatase inhibitors (phosphatase inhibitor cocktail A, Santa Cruz Biotechnology). One volume of 2× Laemmli buffer (100 mM Tris-HCl (pH 6.8), 4% SDS, 0.15% bromophenol blue, 20% glycerol, 200 mM β-mercaptoethanol) was added and the extracts were boiled for 5 min. Samples were adjusted to an equal concentration after protein concentrations were determined using the BCA assay (Pierce, Thermo Fisher Scientific). Lysates were separated using SDS–PAGE and transferred to a nitrocellulose membrane. After transfer, the membrane was blocked in TBST (Tris-buffered saline + 0.1% Tween 20) supplemented with 5% nonfat powdered milk and probed with the indicated primary antibody at 4 °C overnight. After washing with TBST, the membrane was incubated with the appropriate secondary antibody and visualized using enhanced chemiluminescence (ECL) reagents according to the manufacturer’s guidelines (Pierce, Thermo Fisher Scientific).
The following procedure was used to quantify western blots. First, equal quantity of protein lysate was analyzed by SDS–PAGE for each biological replicate. Second, the exposure time of the film to the ECL chemiluminescence was the same for each biological replicate. Third, all the exposed films were scanned on a Brother MFC-J485DW scanner in grayscale at a resolution of 300 dpi. Fourth, the look-up table (LUT) of the scanned tiff images was inverted and the intensity of each band was individually measured using the selection tool and the histogram function in Adobe Photoshop CC 2015 software. […]

N#CC(=C(/N)Sc1ccccc1N)/C(C#N)=C(/N)Sc1ccccc1N [U0126]
effect on BDNF-induced increase of nuclear Arc ([1]; co-treated with BDNF 6 h, k252a 100 nM, ActD 2 ng ml−1, CHX 50 µg ml−1, U0126 10 µM): effectively prevented the increase of nuclear Arc | effect on BDNF-induced Arc mRNA expression (RT-qPCR) (Arc mRNA): prevented BDNF-induced Arc expression

CC(=O)Nc1ccc(C(=O)Nc2ccccc2N)cc1 [CI-994]
inhibitory activity toward HDAC3 (HDAC3): potent inhibition | surface GluA1 puncta per dendrite µm (surface GluA1): significant decrease in surface GluA1 levels | occurrence of neuronal nuclei with above threshold nuclear Arc immunofluorescence signal, factor in relation to control (DMSO plus BDNF) ([2]; 16.7 µM, BDNF): ≥ 1.5 | Percentage of cell with nuclear Arc immunostaining above 2σ threshold ([2]; chemogenomic (SMART) screen, BDNF-induced nuclear Arc expression, primary cortical neurons, BDNF control 19.5): 29.1% | impact on acetyl-H3K9 immunofluorescence (Z-score) (acetyl-H3K9; screen, 16.7 µM): strong impact | inhibitory activity toward HDAC2 (HDAC2): potent inhibition | number of Arc puncta in dendritic projections [3]: significantly greater number of Arc puncta | inhibitory activity toward HDAC1 (HDAC1): potent inhibition

CCN(CC)CCCC(C)Nc1nc(C)cc(Nc2ccc3nc(C)cc(N)c3c2)n1 (centres unmarked) [NSC23766]
effect on BDNF-induced Arc mRNA expression (RT-qPCR) (Arc mRNA): prevented BDNF-induced Arc expression but not Rac1 inhibition by NSC23766

B1: BDNF: recombinant brain-derived neurotrophic factor, 100 ng ml−1 (protein, UniProt P23560 19-247, looked up)
Neurotrophic factor BDNF …: APMKEANIRGQGGLAYPGVRTHGTLESVNGPKAGSRGLTSLADTFEHVIEELLDEDQKVRPNEENNKDADLYTSRVMLSSQVPLEPPLLFLLEEYKNYLDAANMSMRVRRHSDPARRGELSVCDSISEWVTAADKKTAVDMSGGTVTVLEKVPVSKGQLKQYFYETKCNPMGYTKEGCRGIDKRHWNSQCRTTQSYVRALTMDSKKRIGWRFIRIDTSCVCTLTIKRGR
surface GluA1 puncta per dendrite µm (surface GluA1): did not influence, in one way or the other, the number of GluA1 puncta | neurons with Arc-specific nuclear average pixel intensity above threshold (> 2σ of untreated) ([1]; BDNF 100 ng ml−1, 6 h, n = 331 neurons): 17.5% | neuronal nuclei with above threshold average nuclear Arc signal (> 2σ) ([1]; BDNF 24 h, n = 334): 4.2% | acetyl-H3K9 immunofluorescence intensity levels in primary cortical neurons (acetyl-H3K9; BDNF 6 h): unaffected | Arc protein abundance vs untreated control (western blot) (Arc protein): significantly more Arc protein | number of Arc puncta in dendritic projections [3]: did not observe a significant difference
